This is an account of results in publication PMC8097335, “A High‐Affinity Calmodulin‐Binding Site in the CyaA Toxin Translocation Domain is Essential for Invasion of Eukaryotic Cells” (Advanced Science, 2021).

The target of assay [1] is CaM. Particulars: quoted without reference; read-out: Kd of AC:CaM; cited from earlier work.
For another assay, the system named is sheep erythrocytes. Description: Two-step CyaA intoxication assay with or without calmidazolium. In kind it is cell-based. To be noted: CyaA […] bound at 4 °C 30 min, 10 μM CDZ added just prior to shift from 4 to 37 °C; 2, 5, 10 min; three independent replicates. As to the method: (§1) T PCK-treated trypsin (Millipore Sigma, Burlington, MA, USA) for 10 min at 30°C to digest the adenylate cyclase that remained at the external surface of the erythrocytes. A 5-fold excess of soybean trypsin inhibitor was added and cells were washed with buffer A and lysed with 0.1% Tween 20. The activity protected from trypsin digestion corresponds to the internalized toxin. Activities are expressed as percentages of total toxin added to the erythrocytes (taken as 100%) and represent average values from at least three independent measurements. One unit of CyaA activity corresponds to 1 μmol of cAM P formed per min at 30°C and pH 8.0. The bound and internalized AC activities measured with the CyaA recombinant proteins were normalized to that of the WT CyaA toxin. […]
(§2) then resuspended in cold buffer A plus 2 mM CaCl2 and split in two fractions. […] After addition of soybean trypsin inhibitor, the cells were washed with buffer A then lysed with 0.1% Tween 20 and the internalized AC activity protected from trypsin digestion was measured and expressed as a percentage of bound AC activity. […]
(§3) Tryptophan fluorescence is used for the SEC profiles because this allows monitoring the […]

The test system of assay [2] is adenylate cyclase (AC384GK, catalytic domain of CyaA). Description: CaM-dependent adenylate cyclase activity with or without calmidazolium. In kind it is biochemical, Bordetella pertussis. Particulars: CDZ 10 µM, assayed in the presence of 1 µM CaM. As to the method: as §1, §2, §3
Figure S15: CaM-dependent activation of AC with or without calmidazolium (C D Z ) . […] Th e adenylate cyclase activity is expressed as mol of cAMP per sec per mol of AC384GK. […]

Assay [3] relates to CaM. Kind of assay: Size exclusion chromatography of P454, H and AC364 with CaM in the presence of CDZ. The assay is classed as binding. Particulars: SEC, buffer B, CaM 15 µM, CDZ 40 µM, tryptophan fluorescence. As to the method: T PCK-treated trypsin (Millipore Sigma, Burlington, MA, USA) for 10 min at 30°C to digest the adenylate cyclase that remained at the external surface of the erythrocytes. A 5-fold excess of soybean trypsin inhibitor was added and cells were washed with buffer A and lysed with 0.1% Tween 20. The activity protected from trypsin digestion corresponds to the internalized toxin. Activities are expressed as percentages of total toxin added to the erythrocytes (taken as 100%) and represent average values from at least three independent measurements. One unit of CyaA activity corresponds to 1 μmol of cAM P formed per min at 30°C and pH 8.0. The bound and internalized AC activities measured with the CyaA recombinant proteins were normalized to that of the WT CyaA toxin.
For the CyaA intoxication experiments in the presence of calmidazolium (CDZ), in order to minimize the cell exposure to this potent CaM inhibitor, we performed a two-step intoxication assay as described originally by Rogel and Hanski 19. For this, the erythrocytes (5 x 10^8 cells/mL) were in a first step incubated with CyaA (1 μg/mL, 5.6 nM) in buffer A plus 2 mM CaCl2 at 4 °C for 30 min. In these conditions, the toxin can bind to the cell membrane but cannot translocate across membrane 19. […]
as §2
The SEC experiments were performed on a TSKgel G3000SW 7.5 mm ID * 30 cm - column equilibrated in buffer B at a flow rate of 0.6 mL/min at RT. The elution profiles were measured by absorbance at 280 nm, conductivity and by tryptophan fluorescence on a FP750 fluorometer (Ex.: 280 nm; Em.: 340 nm; bandwidths 10/10 nm ) equipped with a on -line cell .
as §3
weak fluorescence signal. […]
fluorescence signal. […]
In general terms: Size exclusion chromatography separates by hydrodynamic size, large species first.

In the next assay the target is holo-CaM. Particulars: cited from earlier work.

As for “AC: N-terminal adenyl cyclase catalytic domain of CyaA, first 364 residues”, at CaM [1], the Kd was roughly 0.1 nM.

On to `Clc1ccc(C(c2ccc(Cl)cc2)n2cc[n+](CC(OCc3ccc(Cl)cc3Cl)c3ccc(Cl)cc3Cl)c2)cc1` (stereo not shown) [CDZ, Calmidazolium chloride], for which the “Amount of internalized AC with CDZ” value in the assay on sheep erythrocytes was “drastically reduced”. Moreover, the “Effect on AC enzymatic activity” value in assay [2] is reported as “no inhibitory effect”. Moreover, in the assay with CaM [3] (AC364 10 µM), the “Effect of CDZ on CaM association with the AC domain” value is on record as “not with the AC domain”. Besides, the “Effect of CDZ on the H:CaM complex” value in the assay on CaM [3] (H 10 µM) is reported as “partially inhibited”. Also, the “Effect of CDZ on CaM association with P454” value in the assay with CaM [3] (P454 10 µM) is listed as “can specifically inhibit”. Also, the Ki at holo-CaM is 10 to 50 nM.

In general, Kd refers to a measure of binding affinity in units of concentration. One may read the Ki as a measure of affinity in units of concentration, obtained from inhibition or displacement.
